In PMC10584170, “Machine learning-based phenotypic imaging to characterise the targetable biology of Plasmodium falciparum male gametocytes for the development of transmission-blocking antimalarials” (PLOS Pathogens, 2023):
Read-outs that look alike come from different tables or passages of the source.

How the values were obtained:
[1] = system: P. falciparum male gametocytes; assay: P. falciparum Dual Gamete Formation Assay (PfDGFA), male readout (exflagellation); type: cell-based, Plasmodium falciparum NF54; details: for Selectivity Ratio M: HepG2 Tox50 versus male IC50
Outline: (§1)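 Mature NF54 gametocytes (day 14) were incubated with compound for 24 h at 37°C under 1% O2/3% CO2, then triggered with xanthurenic acid ookinete medium plus Cy3-anti-Pfs25. Exflagellation was imaged by brightfield; after a further 24 h at 28°C, Pfs25-positive female gametes were imaged by fluorescence and counted by automated image analysis.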

[2] = system: P. falciparum female gametocytes; assay: P. falciparum Dual Gamete Formation Assay (PfDGFA), female readout (Pfs25-positive female gametes); type: cell-based, Plasmodium falciparum NF54; details: for Selectivity ratio F: HepG2 Tox50 versus female IC50
Outline: as §1

[3] = system: P. falciparum female gametocytes; assay: P. falciparum Female Gametocyte Activation Assay (PfFGAA); type: cell-based, Plasmodium falciparum
[4] = system: P. falciparum gametocytes; assay: P. falciparum Gametocyte Viability ATP Assay (PfGCT); type: cell-based, Plasmodium falciparum
Description: (§2) Fig 1 The activity of TCAMS compound identified in the Pf DGFA screen. (A) 85 molecules were confirmed active in the Pf DGFA. 58 were previously identified in one or more transmission-blocking screens. […] No molecule was identified with >4.7-fold greater activity against female gametocytes. Abbreviations (IC50 = concentration giving 50% inhibition, PbODA = P. berghei Ookinete Development Assay, PfDGFA = P. falciparum Dual Gamete Formation Assay, PfFGAA = P. falciparum Female Gametocyte Activation Assay, PfGCT = P. falciparum Gametocyte Viability ATP Assay).

[5] = system: P. falciparum female gametocytes; parameters: method as in Miguel-Blanco et al 2017; details: ref Miguel-Blanco et al 2017; read-out: Pf female gametogenesis FGAA IC50; cited from earlier work
[6] = system: P. falciparum gametocytes; parameters: method as in Almela et al 2015; details: ref Almela et al 2015; read-out: Pf Gametocyte viability (ATP) GC-ATP IC50; cited from earlier work
HepG2 cells [7] = details: cited from earlier work
HepG2 cells [8] = assay: HepG2 cytotoxicity counter-screen; details: for Mean TOX: mean of the HepG2 TOX50 values; for Tox50: cytotoxic activity against HepG2 cells
[9] = system: P. berghei ookinete development; assay: P. berghei Ookinete Development Assay (PbODA); type: cell-based, Plasmodium berghei; details: Mean TOX HepG2 over Pb ODA value; GREEN = >10-fold; RED = <10-fold
Description: as §2

[10] = this study, read-out: Pf DGFA IC50 MALE
[11] = this study, read-out: Pf DGFA IC50 FEM
[12] = Mean TOX HepG2 over FGAA IC50, GREEN = >10-fold, RED = <10-fold
[13] = Mean TOX HepG2 over GC-ATP IC50, GREEN = >10-fold, RED = <10-fold
[14] = Mean TOX HepG2 over DGFA IC50 MALE, GREEN = >10-fold, RED = <10-fold
[15] = Plasmodium falciparum, PfDGFA, 24 h incubation with gametocytes before induction, exflagellation readout, read-out: Male IC50
[16] = Mean TOX HepG2 over DGFA IC50 FEM, GREEN = >10-fold, RED = <10-fold
[17] = Plasmodium falciparum, PfDGFA, 24 h incubation with gametocytes before induction, female gamete readout, read-out: Female IC50
[18] = HepG2 value reported with the FGAA screen, ref Miguel-Blanco et al 2017
[19] = HepG2 value reported with the GC-ATP screen, ref Almela et al 2015
[20] = Plasmodium falciparum, 2µM, 24h preincubation with gametocytes, average of replicates, read-out: Average inhibition male (%)
[21] = Plasmodium falciparum, 2µM, 24h preincubation with gametocytes, replicate R1, read-out: % inhibition male (individual replicates) R1
[22] = Plasmodium falciparum, 2µM, 24h preincubation with gametocytes, replicate R2, read-out: % inhibition male (individual replicates) R2
[23] = Plasmodium falciparum, 2µM, 24h preincubation with gametocytes, replicate R3, read-out: % inhibition male (individual replicates) R3
[24] = Plasmodium falciparum, 2µM, 24h preincubation with gametocytes, replicate R4, read-out: % inhibition male (individual replicates) R4
[25] = Plasmodium falciparum, 2µM, 24h preincubation with gametocytes, average of replicates, read-out: Average inhibition female (%)
[26] = Plasmodium falciparum, 2µM, 24h preincubation with gametocytes, replicate R1, read-out: % inhibition female (individual replicates) R1
[27] = Plasmodium falciparum, 2µM, 24h preincubation with gametocytes, replicate R2, read-out: % inhibition female (individual replicates) R2
[28] = Plasmodium falciparum, 2µM, 24h preincubation with gametocytes, replicate R3, read-out: % inhibition female (individual replicates) R3
[29] = Plasmodium falciparum, 2µM, 24h preincubation with gametocytes, replicate R4, read-out: % inhibition female (individual replicates) R4

| IC50 [1, 10] | IC50 [2, 11] | SMILES | Cytotox ratio Pf Male [1] | Cytotox ratio Pf Female [2] | Cytotox ratio Pf FGAA [3, 12] | Cytotox ratio Pf GC-ATP [4, 13] | IC50 [5] | IC50 [6] | FGAA TOX50 HepG2 (HepG2 cells [7]) | GC-ATP TOX50 HepG2 (HepG2 cells [7]) | Mean TOX (HepG2 cells [8]) | Selectivity Ratio M [1] | Cytotox ratio Pf Male [1, 14] | IC50 [1, 15] | Selectivity ratio F [2] | Cytotox ratio Pf Female [2, 16] | IC50 [2, 17] | Cytotox ratio Pf FGAA ([3]; human) | Cytotox ratio Pf GC-ATP ([4]; human) | FGAA TOX50 HepG2 (HepG2 cells [7]; [18]) | also measured |
| --- | --- | --- | --- | --- | --- | --- | --- | --- | --- | --- | --- | --- | --- | --- | --- | --- | --- | --- | --- | --- | --- |
| 150 nM | 110 nM | O=c1c(Br)ccccc1Br [TC48] | 76.3 | 104.1 | – | 54.5 | – | 210 nM | – | 12.6 µM | 11.45 µM | – | – | – | – | – | – | – | – | – | Cytotox ratio Pb Ookinete [9]: 10834.6; ODA TOX50 HepG2 (HepG2 cells [7]): 14.791 µM |
| 140 nM | 140 nM | [O-][s+]1c(Cl)c(-c2ccc(Cl)cc2)c2ccc(Cl)cc21 (centres unmarked) [TC66] | 99.4 | 99.4 | 347.9 | 695.8 | 40 nM | 20 nM | 11.35 µM | 12.8 µM | 13.92 µM | – | – | – | – | – | – | – | – | – | – |
| 240 nM | 260 nM | O=C(O)CCSSc1cccc[n+]1[O-] [TC78] | 92.3 | 85.2 | 554.1 | 82.1 | 40 nM | 270 nM | 19.05 µM | 7.8 µM | 22.16 µM | – | – | – | – | – | – | – | – | – | Cytotox ratio Pb Ookinete [9]: 13258.7; ODA TOX50 HepG2 (HepG2 cells [7]): 30.903 µM |
| – | – | COc1cc2nc(N3CCN(c4nc(N)c5cc(OC)c(OC)cc5n4)CC3)nc(N)c2cc1OC [TCMDC-123865] | – | – | – | – | 580 nM | 260 nM | – | – | 39.61 µM | 28.11 | 26.9 | 1470 nM | 20.76 | 19.9 | 1990 nM | 68.3 | 152.3 | 52.49 µM | HitlevelM ([1]; 2µM, 24h preincubation, number of replicates with >50% inhibition in the male readout): 3; inhibition at 2 µM ([1]; Plasmodium falciparum, 2µM, 24h preincubation with gametocytes prior to induction of gametogenesis, average of replicates, read-out: Average inhibition male (%)): 50.1%; inhibition at 2 µM ([1]; Plasmodium falciparum, 2µM, 24h preincubation with gametocytes prior to induction of gametogenesis, replicate R1, read-out: % inhibition male (individual replicates) R1): 50.8%; inhibition at 2 µM ([1]; Plasmodium falciparum, 2µM, 24h preincubation with gametocytes prior to induction of gametogenesis, replicate R2, read-out: % inhibition male (individual replicates) R2): 50.6%; inhibition at 2 µM ([1]; Plasmodium falciparum, 2µM, 24h preincubation with gametocytes prior to induction of gametogenesis, replicate R3, read-out: % inhibition male (individual replicates) R3): 23.6%; inhibition at 2 µM ([1]; Plasmodium falciparum, 2µM, 24h preincubation with gametocytes prior to induction of gametogenesis, replicate R4, read-out: % inhibition male (individual replicates) R4): 75.6%; HitlevelF ([2]; 2µM, 24h preincubation, number of replicates with >50% inhibition in the female readout): 0; inhibition at 2 µM ([2]; Plasmodium falciparum, 2µM, 24h preincubation with gametocytes prior to induction of gametogenesis, average of replicates, read-out: Average inhibition female (%)): 2.6%; inhibition at 2 µM ([2]; Plasmodium falciparum, 2µM, 24h preincubation with gametocytes prior to induction of gametogenesis, replicate R1, read-out: % inhibition female (individual replicates) R1): 18.2%; inhibition at 2 µM ([2]; Plasmodium falciparum, 2µM, 24h preincubation with gametocytes prior to induction of gametogenesis, replicate R2, read-out: % inhibition female (individual replicates) R2): 4%; inhibition at 2 µM ([2]; Plasmodium falciparum, 2µM, 24h preincubation with gametocytes prior to induction of gametogenesis, replicate R3, read-out: % inhibition female (individual replicates) R3): -8.7%; inhibition at 2 µM ([2]; Plasmodium falciparum, 2µM, 24h preincubation with gametocytes prior to induction of gametogenesis, replicate R4, read-out: % inhibition female (individual replicates) R4): -3.2%; GC-ATP TOX50 HepG2 (HepG2 cells [7]; [19]): 25 µM; Tox50 (HepG2 cells [8]): 41.34 µM |
| – | – | CN(C)CCNCc1cccc(-c2ccc3c(Nc4ccc(Oc5ccccn5)cc4)ccnc3c2)c1 [TCMDC-138493] | – | – | – | – | 820 nM | 220 nM | – | – | 6.62 µM | 14.59 | 8.5 | 780 nM | 2.14 | 1.2 | 5320 nM | 4.9 | 20.4 | 3.98 µM | inhibition at 2 µM [1, 20]: 96.2%; inhibition at 2 µM [1, 21]: 93.5%; inhibition at 2 µM [1, 22]: 99.2%; inhibition at 2 µM [1, 23]: 91.9%; inhibition at 2 µM [1, 24]: 100%; inhibition at 2 µM [2, 25]: 65.4%; inhibition at 2 µM [2, 26]: 58.7%; inhibition at 2 µM [2, 27]: 66.3%; inhibition at 2 µM [2, 28]: 72.6%; inhibition at 2 µM [2, 29]: 64.1%; GC-ATP TOX50 HepG2 (HepG2 cells [7]; [19]): 4.49 µM; Tox50 (HepG2 cells [8]): 11.38 µM |
| – | – | CN1CCN(CCCNCc2cccc(-c3ccc(CNCCc4ccccc4)cc3)c2)CC1.O=C(O)C(F)(F)F [TCMDC-140643] | – | – | – | – | 1910 nM | 410 nM | – | – | 13.07 µM | 18.8 | 18.9 | 690 nM | 1.63 | 1.6 | 7980 nM | 6.8 | 31.9 | 7.92 µM | inhibition at 2 µM [1, 20]: 91.2%; inhibition at 2 µM [1, 21]: 95%; inhibition at 2 µM [1, 22]: 75.6%; inhibition at 2 µM [1, 23]: 95.7%; inhibition at 2 µM [1, 24]: 98.5%; inhibition at 2 µM [2, 25]: 34.1%; inhibition at 2 µM [2, 26]: 40.2%; inhibition at 2 µM [2, 27]: 30.4%; inhibition at 2 µM [2, 28]: 25.8%; inhibition at 2 µM [2, 29]: 40%; GC-ATP TOX50 HepG2 (HepG2 cells [7]; [19]): 18.24 µM; Tox50 (HepG2 cells [8]): 13.04 µM |

| SMILES | IC50 [1, 10] | IC50 [2, 11] | Cytotox ratio Pf Male [1] | Cytotox ratio Pf Female [2] | Cytotox ratio Pf FGAA [3, 12] | Cytotox ratio Pf GC-ATP [4, 13] | IC50 [5] | IC50 [6] | FGAA TOX50 HepG2 (HepG2 cells [7]) | GC-ATP TOX50 HepG2 (HepG2 cells [7]) | Mean TOX (HepG2 cells [8]) | Selectivity Ratio M [1] | Cytotox ratio Pf Male [1, 14] | IC50 [1, 15] | Selectivity ratio F [2] | Cytotox ratio Pf Female [2, 16] | IC50 [2, 17] | Cytotox ratio Pf FGAA ([3]; human) | Cytotox ratio Pf GC-ATP ([4]; human) | FGAA TOX50 HepG2 (HepG2 cells [7]; [18]) | also measured |
| --- | --- | --- | --- | --- | --- | --- | --- | --- | --- | --- | --- | --- | --- | --- | --- | --- | --- | --- | --- | --- | --- |
| c1ccc2sc(Sc3ncnc4sccc34)nc2c1 [TC45] | 300 nM | 290 nM | 250.0 | 258.6 | 535.7 | 150.0 | 140 nM | 500 nM | 100 µM | 25 µM | 75.00 µM | – | – | – | – | – | – | – | – | – | DGFA Tox50 HepG2 (HepG2 cells [8]; HepG2 value reported with the DGFA screen): 100 µM |
| Cc1sc2ncnc(Sc3nnc(N)s3)c2c1C [TC60] | 1410 nM | 740 nM | 30.1 | 57.4 | 55.1 | 141.5 | 770 nM | 300 nM | 36.31 µM | 25 µM | 42.45 µM | – | – | – | – | – | – | – | – | – | – |
